Experimental data from PubChem BioAssay (NCI).
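Exposure lasted 48 hours, with cells grown in 96-well plates and compounds tested at five concentrations. Abbreviation: GI50, concentration required for 50% inhibition of growth. Definition used: TGI = concentration required for complete inhibition of growth.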

Assays:
Experiment in all cases: NCI anticancer screen, dose series, 48 h
KM12 colon = test system: KM12 colon
SK-MEL-28 melanoma = test system: SK-MEL-28 melanoma
RPMI-8226 leukemia = test system: RPMI-8226 leukemia
T-47D breast = test system: T-47D breast
HT29 colon = test system: HT29 colon
OVCAR-4 ovarian = test system: OVCAR-4 ovarian
SK-MEL-2 melanoma = test system: SK-MEL-2 melanoma
SF-295 CNS = test system: SF-295 CNS
HL-60(TB) leukemia = test system: HL-60(TB) leukemia
MOLT-4 leukemia = test system: MOLT-4 leukemia
SK-OV-3 ovarian = test system: SK-OV-3 ovarian
SR leukemia = test system: SR leukemia
IGROV1 ovarian = test system: IGROV1 ovarian
NCI-H23 lung = test system: NCI-H23 lung
HS 578T breast = test system: HS 578T breast
BT-549 breast = test system: BT-549 breast
HCC-2998 colon = test system: HCC-2998 colon
U251 CNS = test system: U251 CNS
NCI-H460 lung = test system: NCI-H460 lung
SF-268 CNS = test system: SF-268 CNS
PC-3 prostate = test system: PC-3 prostate
SF-539 CNS = test system: SF-539 CNS
HOP-62 NSCLC = test system: HOP-62 NSCLC
DU-145 prostate = test system: DU-145 prostate
SN12C renal = test system: SN12C renal
786-0 renal = test system: 786-0 renal
UO-31 renal = test system: UO-31 renal
HCT-15 colon = test system: HCT-15 colon
HCT-116 colon = test system: HCT-116 colon
COLO 205 colon = test system: COLO 205 colon
RXF 393 renal = test system: RXF 393 renal
NCI-H522 lung = test system: NCI-H522 lung
A549 NSCLC = test system: A549 NSCLC
MALME-3M melanoma = test system: MALME-3M melanoma
UACC-257 melanoma = test system: UACC-257 melanoma
OVCAR-8 ovarian = test system: OVCAR-8 ovarian
A498 renal = test system: A498 renal
CCRF-CEM leukemia = test system: CCRF-CEM leukemia
UACC-62 melanoma = test system: UACC-62 melanoma
OVCAR-5 ovarian = test system: OVCAR-5 ovarian
TK-10 renal = test system: TK-10 renal
ACHN renal = test system: ACHN renal
SW-620 colon = test system: SW-620 colon
SNB-19 CNS = test system: SNB-19 CNS
MCF7 breast = test system: MCF7 breast
MDA-MB-435 = test system: MDA-MB-435
SK-MEL-5 melanoma = test system: SK-MEL-5 melanoma
OVCAR-3 ovarian = test system: OVCAR-3 ovarian
CAKI-1 renal = test system: CAKI-1 renal
HOP-92 NSCLC = test system: HOP-92 NSCLC
K-562 leukemia = test system: K-562 leukemia
LOX IMVI melanoma = test system: LOX IMVI melanoma
SNB-75 CNS = test system: SNB-75 CNS
NCI-H226 lung = test system: NCI-H226 lung
MDA-MB-231 breast = test system: MDA-MB-231 breast
NCI/ADR-RES ovarian = test system: NCI/ADR-RES ovarian
M14 melanoma = test system: M14 melanoma
EKVX NSCLC = test system: EKVX NSCLC

## O=c1cc(NC2CCN(CCCc3ccccc3)CC2)c2cc(Cl)ccc2o1
KM12 colon
  GI50: 12.5 µM
  TGI: 25 µM
SK-MEL-28 melanoma
  GI50: 11.1 µM
  TGI: 23.9 µM
RPMI-8226 leukemia
  GI50: 16.5 µM
  TGI: 43.4 µM
T-47D breast
  GI50: 12.5 µM
  TGI: 38.4 µM
HT29 colon
  GI50: 4.6 µM
  TGI: 19.5 µM
OVCAR-4 ovarian
  GI50: 13.2 µM
  TGI: 35.6 µM
SK-MEL-2 melanoma
  GI50: 18.4 µM
  TGI: 33.1 µM
SF-295 CNS
  GI50: 15.1 µM
  TGI: 29.9 µM
HL-60(TB) leukemia
  GI50: 20.5 µM
  TGI: 49.3 µM
MOLT-4 leukemia
  GI50: 8.26 µM
  TGI: 37.9 µM
SK-OV-3 ovarian
  GI50: 16.1 µM
  TGI: 29.8 µM
SR leukemia
  GI50: 6.81 µM
  TGI: 28.3 µM
IGROV1 ovarian
  GI50: 11.3 µM
  TGI: 26.6 µM
NCI-H23 lung
  GI50: 14.6 µM
  TGI: 30.3 µM
HS 578T breast
  GI50: 15.1 µM
  TGI: 36 µM
BT-549 breast
  GI50: 12.9 µM
  TGI: 26.8 µM
HCC-2998 colon
  GI50: 13 µM
  TGI: 27.3 µM
U251 CNS
  GI50: 9.19 µM
  TGI: 21.3 µM
NCI-H460 lung
  GI50: 15.7 µM
  TGI: 29.6 µM
SF-268 CNS
  GI50: 14.3 µM
  TGI: 28.3 µM
PC-3 prostate
  GI50: 12.9 µM
  TGI: 26.9 µM
SF-539 CNS
  GI50: 12.3 µM
  TGI: 25.3 µM
HOP-62 NSCLC
  GI50: 17.3 µM
  TGI: 33.3 µM
DU-145 prostate
  GI50: 15.8 µM
  TGI: 29.3 µM
SN12C renal
  GI50: 13 µM
  TGI: 28.2 µM
786-0 renal
  GI50: 6.55 µM
  TGI: 21.2 µM
UO-31 renal
  GI50: 4.39 µM
  TGI: 17.8 µM
HCT-15 colon
  GI50: 3.89 µM
  TGI: 17.4 µM
HCT-116 colon
  GI50: 4.02 µM
  TGI: 16.5 µM
COLO 205 colon
  GI50: 9.98 µM
  TGI: 23.2 µM
RXF 393 renal
  GI50: 5.88 µM
  TGI: 21.2 µM
NCI-H522 lung
  GI50: 8.35 µM
  TGI: 23.5 µM
A549 NSCLC
  GI50: 13.4 µM
  TGI: 28.6 µM
MALME-3M melanoma
  GI50: 11.2 µM
  TGI: 25.4 µM
UACC-257 melanoma
  GI50: 15.4 µM
  TGI: 30 µM
OVCAR-8 ovarian
  GI50: 12.1 µM
  TGI: 27.2 µM
A498 renal
  GI50: 42.3 nM
  TGI: 6.92 µM
CCRF-CEM leukemia
  GI50: 18.2 µM
  TGI: 79.3 µM
UACC-62 melanoma
  GI50: 15.1 µM
  TGI: 29.8 µM
OVCAR-5 ovarian
  GI50: 10.8 µM
  TGI: 24.6 µM
TK-10 renal
  GI50: 13.4 µM
  TGI: 26.6 µM
ACHN renal
  GI50: 4860 nM
  TGI: 17.6 µM
SW-620 colon
  GI50: 15 µM
  TGI: 30.5 µM
SNB-19 CNS
  GI50: 13.4 µM
  TGI: 29.8 µM
MCF7 breast
  GI50: 9.42 µM
  TGI: 26.9 µM
MDA-MB-435
  GI50: 5.26 µM
  TGI: 18.1 µM
SK-MEL-5 melanoma
  GI50: 12 µM
  TGI: 24.4 µM
OVCAR-3 ovarian
  GI50: 6.6 µM
  TGI: 19.4 µM
CAKI-1 renal
  GI50: 12.4 µM
  TGI: 25.6 µM
HOP-92 NSCLC
  GI50: 11.9 µM
  TGI: 27.7 µM
K-562 leukemia
  GI50: 3.86 µM
  TGI: 20.5 µM
LOX IMVI melanoma
  GI50: 5.8 µM
  TGI: 19.2 µM
SNB-75 CNS
  GI50: 8.1 µM
  TGI: 21.1 µM
NCI-H226 lung
  GI50: 15.6 µM
  TGI: 39.6 µM
MDA-MB-231 breast
  GI50: 9.42 µM
  TGI: 22.9 µM
NCI/ADR-RES ovarian
  GI50: 15 µM
  TGI: 30.4 µM

## Cc1ccc(-c2nc3ccc(Cl)cc3c(=O)n2N2C(=O)CSC2c2ccccc2Cl)cc1 (stereo not drawn)
KM12 colon
  GI50: > 100 µM
  TGI: > 100 µM
SK-MEL-28 melanoma
  GI50: 20.6 µM
  TGI: > 100 µM
RPMI-8226 leukemia
  GI50: > 100 µM
  TGI: > 100 µM
T-47D breast
  GI50: 3.82 µM
  TGI: > 100 µM
HT29 colon
  GI50: 60.2 µM
  TGI: > 100 µM
OVCAR-4 ovarian
  GI50: 4.54 µM
  TGI: > 100 µM
SF-295 CNS
  GI50: 4.73 µM
  TGI: > 100 µM
MOLT-4 leukemia
  GI50: > 100 µM
  TGI: > 100 µM
SK-OV-3 ovarian
  GI50: 2.89 µM
  TGI: 9.9 µM
SR leukemia
  GI50: > 100 µM
  TGI: > 100 µM
IGROV1 ovarian
  GI50: 3.69 µM
  TGI: > 100 µM
NCI-H23 lung
  GI50: > 100 µM
  TGI: > 100 µM
HS 578T breast
  GI50: 2.62 µM
  TGI: 17.2 µM
BT-549 breast
  GI50: > 100 µM
  TGI: > 100 µM
HCC-2998 colon
  GI50: > 100 µM
  TGI: > 100 µM
U251 CNS
  GI50: 5.05 µM
  TGI: > 100 µM
NCI-H460 lung
  GI50: 3.68 µM
  TGI: > 100 µM
SF-268 CNS
  GI50: 9.97 µM
  TGI: > 100 µM
PC-3 prostate
  GI50: 83 µM
  TGI: > 100 µM
SF-539 CNS
  GI50: > 100 µM
  TGI: > 100 µM
HOP-62 NSCLC
  GI50: 1.98 µM
  TGI: 5.09 µM
DU-145 prostate
  GI50: 58.4 µM
  TGI: > 100 µM
SN12C renal
  GI50: 11.8 µM
  TGI: > 100 µM
786-0 renal
  GI50: 3.62 µM
  TGI: > 100 µM
UO-31 renal
  GI50: 3.66 µM
  TGI: > 100 µM
HCT-15 colon
  GI50: > 100 µM
  TGI: > 100 µM
HCT-116 colon
  GI50: 5.51 µM
  TGI: > 100 µM
COLO 205 colon
  GI50: 9 µM
  TGI: > 100 µM
RXF 393 renal
  GI50: 6.46 µM
  TGI: > 100 µM
MALME-3M melanoma
  GI50: 5.97 µM
  TGI: > 100 µM
UACC-257 melanoma
  GI50: > 100 µM
  TGI: > 100 µM
OVCAR-8 ovarian
  GI50: 4.58 µM
  TGI: > 100 µM
A498 renal
  GI50: 5910 nM
  TGI: > 100 µM
CCRF-CEM leukemia
  GI50: > 100 µM
  TGI: > 100 µM
UACC-62 melanoma
  GI50: 25.8 µM
  TGI: > 100 µM
OVCAR-5 ovarian
  GI50: > 100 µM
  TGI: > 100 µM
M14 melanoma
  GI50: 56.2 µM
  TGI: > 100 µM
ACHN renal
  GI50: 627 nM
  TGI: > 100 µM
SW-620 colon
  GI50: > 100 µM
  TGI: > 100 µM
EKVX NSCLC
  GI50: 4.15 µM
  TGI: > 100 µM
SNB-19 CNS
  GI50: 5 µM
  TGI: > 100 µM
MCF7 breast
  GI50: 26.9 µM
  TGI: > 100 µM
MDA-MB-435
  GI50: > 100 µM
  TGI: > 100 µM
SK-MEL-5 melanoma
  GI50: 20 µM
  TGI: > 100 µM
OVCAR-3 ovarian
  GI50: 5.44 µM
  TGI: > 100 µM
CAKI-1 renal
  GI50: 4.82 µM
  TGI: > 100 µM
HOP-92 NSCLC
  GI50: 6.74 µM
  TGI: > 100 µM
K-562 leukemia
  GI50: > 100 µM
  TGI: > 100 µM
LOX IMVI melanoma
  GI50: 70.1 µM
  TGI: > 100 µM
SNB-75 CNS
  GI50: 1.39 µM
  TGI: 4.74 µM
NCI-H226 lung
  GI50: 5.14 µM
  TGI: > 100 µM
MDA-MB-231 breast
  GI50: 4.21 µM
  TGI: > 100 µM
NCI/ADR-RES ovarian
  GI50: 8.87 µM
  TGI: > 100 µM
